From PubChem BioAssay (NCI)
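96-well plates; 48 h exposure; 5 concentrations. Endpoints by linear interpolation between flanking doses. Not reached: highest tested concentration assigned. The concentration for 50% growth inhibition is given as GI50. The concentration for full growth arrest is given as TGI.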

Legend:
Assay in all cases: NCI tumour cell line growth inhibition, 48 h
KM12 colon = system: KM12 colon
HOP-92 NSCLC = system: HOP-92 NSCLC
786-0 renal = system: 786-0 renal
UO-31 renal = system: UO-31 renal
A549 NSCLC = system: A549 NSCLC
HL-60(TB) leukemia = system: HL-60(TB) leukemia
CAKI-1 renal = system: CAKI-1 renal
A498 renal = system: A498 renal
NCI-H226 lung = system: NCI-H226 lung
OVCAR-5 ovarian = system: OVCAR-5 ovarian
OVCAR-4 ovarian = system: OVCAR-4 ovarian
M14 melanoma = system: M14 melanoma
NCI/ADR-RES ovarian = system: NCI/ADR-RES ovarian
MALME-3M melanoma = system: MALME-3M melanoma
COLO 205 colon = system: COLO 205 colon
ACHN renal = system: ACHN renal
SF-539 CNS = system: SF-539 CNS
SF-268 CNS = system: SF-268 CNS
TK-10 renal = system: TK-10 renal
HOP-62 NSCLC = system: HOP-62 NSCLC
CCRF-CEM leukemia = system: CCRF-CEM leukemia
HS 578T breast = system: HS 578T breast
HCT-116 colon = system: HCT-116 colon
RPMI-8226 leukemia = system: RPMI-8226 leukemia
HT29 colon = system: HT29 colon
DU-145 prostate = system: DU-145 prostate
T-47D breast = system: T-47D breast
OVCAR-8 ovarian = system: OVCAR-8 ovarian
SW-620 colon = system: SW-620 colon
RXF 393 renal = system: RXF 393 renal
HCT-15 colon = system: HCT-15 colon
NCI-H23 lung = system: NCI-H23 lung
UACC-257 melanoma = system: UACC-257 melanoma
PC-3 prostate = system: PC-3 prostate
MCF7 breast = system: MCF7 breast
SF-295 CNS = system: SF-295 CNS
EKVX NSCLC = system: EKVX NSCLC
MOLT-4 leukemia = system: MOLT-4 leukemia
OVCAR-3 ovarian = system: OVCAR-3 ovarian
SK-MEL-5 melanoma = system: SK-MEL-5 melanoma
SK-MEL-2 melanoma = system: SK-MEL-2 melanoma
LOX IMVI melanoma = system: LOX IMVI melanoma
MDA-MB-435 = system: MDA-MB-435
SNB-19 CNS = system: SNB-19 CNS
NCI-H460 lung = system: NCI-H460 lung
SNB-75 CNS = system: SNB-75 CNS
IGROV1 ovarian = system: IGROV1 ovarian
SK-MEL-28 melanoma = system: SK-MEL-28 melanoma
BT-549 breast = system: BT-549 breast
SK-OV-3 ovarian = system: SK-OV-3 ovarian
U251 CNS = system: U251 CNS
SR leukemia = system: SR leukemia
NCI-H522 lung = system: NCI-H522 lung
K-562 leukemia = system: K-562 leukemia
SN12C renal = system: SN12C renal
UACC-62 melanoma = system: UACC-62 melanoma
MDA-MB-231 breast = system: MDA-MB-231 breast
HCC-2998 colon = system: HCC-2998 colon

## CCCCCC(=C/c1ccccc1)/C=N/N=C(N)N
KM12 colon
  GI50: 1430 nM
  TGI: 2820 nM
HOP-92 NSCLC
  GI50: 1450 nM
  TGI: 3190 nM
786-0 renal
  GI50: 1600 nM
  TGI: 3000 nM
UO-31 renal
  GI50: 1190 nM
  TGI: 2500 nM
A549 NSCLC
  GI50: 1730 nM
  TGI: 3230 nM
HL-60(TB) leukemia
  GI50: 451 nM
  TGI: 1960 nM
CAKI-1 renal
  GI50: 5160 nM
  TGI: 21200 nM
A498 renal
  GI50: 621 nM
  TGI: 1990 nM
NCI-H226 lung
  GI50: 2200 nM
  TGI: 5510 nM
OVCAR-5 ovarian
  GI50: 1740 nM
  TGI: 3690 nM
OVCAR-4 ovarian
  GI50: 1460 nM
  TGI: 2840 nM
M14 melanoma
  GI50: 1560 nM
  TGI: 3090 nM
NCI/ADR-RES ovarian
  GI50: 1530 nM
  TGI: 3300 nM
MALME-3M melanoma
  GI50: 1510 nM
  TGI: 3120 nM
COLO 205 colon
  GI50: 1650 nM
  TGI: 3170 nM
ACHN renal
  GI50: 1690 nM
  TGI: 3280 nM
SF-539 CNS
  GI50: 1950 nM
  TGI: 3710 nM
SF-268 CNS
  GI50: 1450 nM
  TGI: 2990 nM
TK-10 renal
  GI50: 1750 nM
  TGI: 3320 nM
HOP-62 NSCLC
  GI50: 1630 nM
  TGI: 3310 nM
CCRF-CEM leukemia
  GI50: 2000 nM
  TGI: 5040 nM
HS 578T breast
  GI50: 1800 nM
  TGI: 4180 nM
HCT-116 colon
  GI50: 1320 nM
  TGI: 2720 nM
RPMI-8226 leukemia
  GI50: 1420 nM
  TGI: 3550 nM
HT29 colon
  GI50: 1580 nM
  TGI: 3270 nM
DU-145 prostate
  GI50: 1570 nM
  TGI: 2940 nM
T-47D breast
  GI50: 1650 nM
  TGI: 3620 nM
OVCAR-8 ovarian
  GI50: 1740 nM
  TGI: 3540 nM
SW-620 colon
  GI50: 1520 nM
  TGI: 3160 nM
RXF 393 renal
  GI50: 1720 nM
  TGI: 3150 nM
HCT-15 colon
  GI50: 1990 nM
  TGI: 5000 nM
NCI-H23 lung
  GI50: 1470 nM
  TGI: 3120 nM
UACC-257 melanoma
  GI50: 1450 nM
  TGI: 2830 nM
PC-3 prostate
  GI50: 1400 nM
  TGI: 2920 nM
MCF7 breast
  GI50: 1340 nM
  TGI: 2740 nM
SF-295 CNS
  GI50: 1670 nM
  TGI: 3490 nM
EKVX NSCLC
  GI50: 4030 nM
  TGI: 19100 nM
MOLT-4 leukemia
  GI50: 1530 nM
  TGI: 3510 nM
OVCAR-3 ovarian
  GI50: 1270 nM
  TGI: 2560 nM
SK-MEL-5 melanoma
  GI50: 1660 nM
  TGI: 3040 nM
SK-MEL-2 melanoma
  GI50: 1700 nM
  TGI: 3200 nM
LOX IMVI melanoma
  GI50: 1440 nM
  TGI: 3020 nM
MDA-MB-435
  GI50: 1700 nM
  TGI: 3280 nM
SNB-19 CNS
  GI50: 1850 nM
  TGI: 4150 nM
NCI-H460 lung
  GI50: 1570 nM
  TGI: 3130 nM
SNB-75 CNS
  GI50: 1350 nM
  TGI: 2700 nM
IGROV1 ovarian
  GI50: 1320 nM
  TGI: 2720 nM
SK-MEL-28 melanoma
  GI50: 1650 nM
  TGI: 3060 nM
BT-549 breast
  GI50: 1650 nM
  TGI: 3020 nM
SK-OV-3 ovarian
  GI50: 2950 nM
  TGI: 10800 nM
U251 CNS
  GI50: 1700 nM
  TGI: 3180 nM

## Cc1ccccc1C[P+](c1ccccc1)(c1ccccc1)c1ccccc1
SR leukemia
  GI50: 2020 nM
  TGI: > 100000 nM
KM12 colon
  GI50: 804 nM
  TGI: 11000 nM
NCI-H522 lung
  GI50: 780 nM
  TGI: 5730 nM
HOP-92 NSCLC
  GI50: 433 nM
  TGI: 3770 nM
786-0 renal
  GI50: 4230 nM
  TGI: > 100000 nM
UO-31 renal
  GI50: 40500 nM
  TGI: > 100000 nM
A549 NSCLC
  GI50: 3720 nM
  TGI: > 100000 nM
HL-60(TB) leukemia
  GI50: 1580 nM
  TGI: 5750 nM
CAKI-1 renal
  GI50: 23600 nM
  TGI: > 100000 nM
A498 renal
  GI50: 1930 nM
  TGI: 12700 nM
NCI-H226 lung
  GI50: 3180 nM
  TGI: > 100000 nM
OVCAR-5 ovarian
  GI50: 2860 nM
  TGI: > 100000 nM
OVCAR-4 ovarian
  GI50: 640 nM
  TGI: 9390 nM
NCI/ADR-RES ovarian
  GI50: > 100000 nM
  TGI: > 100000 nM
MALME-3M melanoma
  GI50: 4720 nM
  TGI: > 100000 nM
COLO 205 colon
  GI50: 1160 nM
  TGI: 3280 nM
ACHN renal
  GI50: 7280 nM
  TGI: > 100000 nM
SF-539 CNS
  GI50: 2340 nM
  TGI: > 100000 nM
SF-268 CNS
  GI50: 1890 nM
  TGI: > 100000 nM
TK-10 renal
  GI50: 1200 nM
  TGI: 30200 nM
HOP-62 NSCLC
  GI50: 1790 nM
  TGI: 58900 nM
K-562 leukemia
  GI50: 786 nM
  TGI: > 100000 nM
SN12C renal
  GI50: 2420 nM
  TGI: > 100000 nM
CCRF-CEM leukemia
  GI50: 2040 nM
  TGI: > 100000 nM
HS 578T breast
  GI50: 2130 nM
  TGI: 33700 nM
HCT-116 colon
  GI50: 896 nM
  TGI: > 100000 nM
RPMI-8226 leukemia
  GI50: 390 nM
  TGI: 5400 nM
HT29 colon
  GI50: 849 nM
  TGI: 14800 nM
DU-145 prostate
  GI50: 2180 nM
  TGI: > 100000 nM
UACC-62 melanoma
  GI50: 757 nM
  TGI: 31600 nM
T-47D breast
  GI50: 294 nM
  TGI: 14900 nM
OVCAR-8 ovarian
  GI50: 1480 nM
  TGI: > 100000 nM
SW-620 colon
  GI50: 2330 nM
  TGI: > 100000 nM
RXF 393 renal
  GI50: 4500 nM
  TGI: 37100 nM
HCT-15 colon
  GI50: 27900 nM
  TGI: > 100000 nM
MDA-MB-231 breast
  GI50: 2040 nM
  TGI: > 100000 nM
NCI-H23 lung
  GI50: 1970 nM
  TGI: > 100000 nM
UACC-257 melanoma
  GI50: 371 nM
  TGI: 4650 nM
MCF7 breast
  GI50: 649 nM
  TGI: 39600 nM
SF-295 CNS
  GI50: 2340 nM
  TGI: > 100000 nM
EKVX NSCLC
  GI50: 873 nM
  TGI: > 100000 nM
HCC-2998 colon
  GI50: 888 nM
  TGI: 24200 nM
MOLT-4 leukemia
  GI50: 4900 nM
  TGI: > 100000 nM
OVCAR-3 ovarian
  GI50: 1000 nM
  TGI: > 100000 nM
SK-MEL-5 melanoma
  GI50: 375 nM
  TGI: 1580 nM
SK-MEL-2 melanoma
  GI50: 1290 nM
  TGI: 68400 nM
LOX IMVI melanoma
  GI50: 1090 nM
  TGI: > 100000 nM
MDA-MB-435
  GI50: 938 nM
  TGI: 21300 nM
SNB-19 CNS
  GI50: 2070 nM
  TGI: > 100000 nM
NCI-H460 lung
  GI50: 1730 nM
  TGI: 12900 nM
SNB-75 CNS
  GI50: 1210 nM
  TGI: 16200 nM
IGROV1 ovarian
  GI50: 2420 nM
  TGI: > 100000 nM
SK-MEL-28 melanoma
  GI50: 2100 nM
  TGI: 44000 nM
BT-549 breast
  GI50: 2700 nM
  TGI: 71700 nM
SK-OV-3 ovarian
  GI50: 1640 nM
  TGI: 9270 nM
U251 CNS
  GI50: 1350 nM
  TGI: > 100000 nM
